From the NIST ThermoML archive (doi:10.1021/acs.jced.5b01023)
± gives the expanded uncertainty stated by the source.

Experiment: refractive index (Na D-line) (dimensionless); xn = mol fraction of the nth substance listed
Details: 101 kPa, Liquid, Standard Abbe refractometry

CC(=O)[O-].CCn1cc[n+](C)c1 [1-ethyl-3-methylimidazolium acetate] + CCCO
refractive index
Details	x1 = 0.1017	x1 = 0.2004	x1 = 0.3001	x1 = 0.3998	x1 = 0.4997	x1 = 0.5996	x1 = 0.6998	x1 = 0.8002	x1 = 0.8991	x1 = 1
288.15 K	1.41146 ± 0.00035	1.42938 ± 0.00036	1.44451 ± 0.00037	1.45711 ± 0.00039	1.46775 ± 0.00041	1.47687 ± 0.00043	1.485 ± 0.00045	1.49189 ± 0.00047	1.49712 ± 0.0005	1.50285 ± 0.00053
298.15 K	1.40825 ± 0.00035	1.42622 ± 0.00036	1.44134 ± 0.00037	1.45401 ± 0.00039	1.46473 ± 0.00041	1.47411 ± 0.00043	1.48219 ± 0.00045	1.48919 ± 0.00047	1.49506 ± 0.0005	1.50069 ± 0.00053
308.15 K	1.40453 ± 0.00035	1.42291 ± 0.00036	1.43827 ± 0.00037	1.45119 ± 0.00039	1.46189 ± 0.00041	1.47127 ± 0.00043	1.47942 ± 0.00045	1.48632 ± 0.00047	1.49221 ± 0.0005	1.49803 ± 0.00053
318.15 K	1.40109 ± 0.00035	1.41973 ± 0.00036	1.43523 ± 0.00037	1.44803 ± 0.00039	1.45888 ± 0.00041	1.4683 ± 0.00043	1.47661 ± 0.00045	1.48365 ± 0.00047	1.48899 ± 0.0005	1.49527 ± 0.00053
328.15 K	1.39753 ± 0.00035	1.41631 ± 0.00036	1.43208 ± 0.00037	1.44542 ± 0.00039	1.45593 ± 0.00041	1.4657 ± 0.00043	1.47372 ± 0.00045	1.48089 ± 0.00047	1.48673 ± 0.0005	1.49266 ± 0.00053
338.15 K	1.39391 ± 0.00035	1.41301 ± 0.00036	1.4291 ± 0.00037	1.44211 ± 0.00039	1.45308 ± 0.00041	1.46267 ± 0.00043	1.4711 ± 0.00045	1.47818 ± 0.00047	1.48324 ± 0.0005	1.48995 ± 0.00053
348.15 K	1.39115 ± 0.00036	1.41033 ± 0.00036	1.42601 ± 0.00037	1.43912 ± 0.00039	1.45026 ± 0.00041	1.45993 ± 0.00043	1.46823 ± 0.00045	1.47546 ± 0.00047	1.4803 ± 0.0005	1.48721 ± 0.00053

CC(=O)[O-].CCn1cc[n+](C)c1 [1-ethyl-3-methylimidazolium acetate] + CC(C)O
refractive index
Details	x1 = 0.1	x1 = 0.2	x1 = 0.3	x1 = 0.4	x1 = 0.5001	x1 = 0.5998	x1 = 0.7	x1 = 0.7994	x1 = 0.9	x1 = 1
288.15 K	1.40475 ± 0.004	–	1.43991 ± 0.004	1.45344 ± 0.004	1.4651 ± 0.004	1.47535 ± 0.004	1.48406 ± 0.004	1.4912 ± 0.004	1.49776 ± 0.004	1.50285 ± 0.004
298.15 K	1.40107 ± 0.004	–	1.43669 ± 0.004	1.45075 ± 0.004	1.46242 ± 0.004	1.47243 ± 0.004	1.48131 ± 0.004	1.48861 ± 0.004	1.49526 ± 0.004	1.50069 ± 0.004
308.15 K	1.39762 ± 0.004	1.42276 ± 0.004	1.4336 ± 0.004	1.4475 ± 0.004	–	1.46954 ± 0.004	1.4784 ± 0.004	1.48593 ± 0.004	1.49257 ± 0.004	1.49803 ± 0.004
318.15 K	1.39423 ± 0.004	1.41947 ± 0.004	1.43066 ± 0.004	1.44471 ± 0.004	1.45641 ± 0.004	1.46689 ± 0.004	1.47561 ± 0.004	1.48324 ± 0.004	1.48986 ± 0.004	1.49527 ± 0.004
328.15 K	1.39112 ± 0.004	1.41637 ± 0.004	1.42763 ± 0.004	1.44229 ± 0.004	1.45352 ± 0.004	1.46489 ± 0.004	1.47293 ± 0.004	1.48046 ± 0.004	1.48714 ± 0.004	1.49266 ± 0.004
338.15 K	1.38677 ± 0.004	1.41309 ± 0.004	1.42464 ± 0.004	1.43908 ± 0.004	1.45107 ± 0.004	1.45943 ± 0.004	1.47054 ± 0.004	1.47775 ± 0.004	1.48466 ± 0.004	1.48995 ± 0.004
